From the supplement of paper PMC13380429

Tests used:
Details in all cases: 72 h
Caco-2 [1] = test: cell viability relative to DMSO; higher = less toxic
Calu-3 [2] = test: as above
HepG2 [3] = test: as above
U2OS [4] = test: as above
Caco-2 [5] = test: relative viability EC50 (midpoint between 100% and the lowest measured viability); higher = less toxic
Calu-3 [6] = test: as above
HepG2 [7] = test: as above
U2OS [8] = test: as above
Caco-2 [9] = test: drug sensitivity score (DSS) for viability; higher = more toxic; extreme values may be limits of the assay
Calu-3 [10] = test: as above
HepG2 [11] = test: as above
U2OS [12] = test: as above
Vero E6 [13] = test: cell viability relative to DMSO; higher = less toxic
Vero E6 [14] = test: relative viability EC50 (midpoint between 100% and the lowest measured viability); higher = less toxic
Vero E6 [15] = test: drug sensitivity score (DSS) for viability; higher = more toxic; extreme values may be limits of the assay

Row | SMILES | cell viability (Caco-2 [1]; 1 nM) | cell viability (Caco-2 [1]; 10 nM) | cell viability (Caco-2 [1]; 100 nM) | cell viability (Caco-2 [1]; 1000 nM) | cell viability (Caco-2 [1]; 10000 nM) | cell viability (Calu-3 [2]; 1 nM) | cell viability (Calu-3 [2]; 10 nM) | cell viability (Calu-3 [2]; 100 nM) | cell viability (Calu-3 [2]; 1000 nM) | cell viability (Calu-3 [2]; 10000 nM) | cell viability (HepG2 [3]; 1 nM) | cell viability (HepG2 [3]; 10 nM) | cell viability (HepG2 [3]; 100 nM) | cell viability (HepG2 [3]; 1000 nM) | cell viability (HepG2 [3]; 10000 nM) | cell viability (U2OS [4]; 1 nM) | cell viability (U2OS [4]; 10 nM) | cell viability (U2OS [4]; 100 nM) | cell viability (U2OS [4]; 1000 nM) | cell viability (U2OS [4]; 10000 nM) | relative viability EC50 (Caco-2 [5]) | relative viability EC50 (Calu-3 [6]) | relative viability EC50 (HepG2 [7]) | relative viability EC50 (U2OS [8]) | drug sensitivity score (Caco-2 [9]) | drug sensitivity score (Calu-3 [10]) | drug sensitivity score (HepG2 [11]) | drug sensitivity score (U2OS [12]) | cell viability (Vero E6 [13]; 1 nM) | cell viability (Vero E6 [13]; 10 nM) | cell viability (Vero E6 [13]; 100 nM) | cell viability (Vero E6 [13]; 1000 nM) | cell viability (Vero E6 [13]; 10000 nM) | relative viability EC50 (Vero E6 [14]) | drug sensitivity score (Vero E6 [15])
1 | C=C1CCN([C@H](C)[C@](O)(Cn2cncn2)c2ccc(F)cc2F)CC1 [efinaconazole] | 96.9% | 98.3% | 100% | 91.8% | 78.3% | 88% | 99.3% | 94.7% | 96.9% | 91.4% | 102% | 98.3% | 92.4% | 95.9% | 91.5% | 99.2% | 101% | 96.2% | 103% | 96.1% | > 10 µM | > 10 µM | > 10 µM | > 10 µM | 1.7 | 0 | 0 | 0 |  |  |  |  |  |  | 
2 | CCCS(=O)(=O)Nc1ccc(F)c(C(=O)c2c[nH]c3ncc(-c4ccc(Cl)cc4)cc23)c1F [vemurafenib] | 109% | 97.3% | 117% | 107% | 77% | 102% | 105% | 106% | 95.8% | 90.1% | 113% | 103% | 98.3% | 107% | 54.5% | 96.6% | 100% | 95.2% | 104% | 86.8% | > 10 µM | > 10 µM |  | > 10 µM | 0.5 | 0 | 1.9 | 0.1 | 106% | 104% | 100% | 111% | 91.7% | > 10 µM | 0
3 | CC(CCc1ccccc1)NC(C)C(O)c1ccc(O)cc1 (stereo unspecified) [buphenine] | 90.4% | 102% | 92.2% | 92.5% | 90% | 108% | 106% | 99.3% | 104% | 110% | 98.8% | 100% | 95.9% | 89.7% | 91.3% | 101% | 100% | 100% | 94.6% | 99.1% | > 10 µM | > 10 µM | > 10 µM | > 10 µM | 0 | 0 | 0.1 | 0 |  |  |  |  |  |  | 
4 | Nc1nc2c(c(N3CCNCC3)n1)CCC1=C2[C@@H]2CCCC[C@@H]2O1 | 99.3% | 95.5% | 93% | 91.5% | 103% | 104% | 105% | 101% | 106% | 96.4% | 94.8% | 105% | 109% | 102% | 54.2% | 102% | 100% | 99.5% | 98.8% | 101% | > 10 µM | > 10 µM |  | > 10 µM | 0 | 0 | 2.2 | 0 | 96.3% | 93% | 93.6% | 88.5% | 90% | > 10 µM | 0.1
5 | CCCCCCc1ccc(O)cc1O.Nc1c2ccccc2nc2ccccc12 [acrisorcin] | 99.5% | 103% | 96.6% | 96.7% | 47.4% | 99.1% | 88.3% | 101% | 96.4% | 60.7% | 103% | 106% | 95.3% | 77.9% | 0.3% | 100% | 101% | 100% | 96.1% | 27.9% | 2.66 µM |  | 1.65 µM | 2.75 µM | 3.3 | 2.5 | 9 | 4.5 | 105% | 102% | 102% | 91.7% | 0.3% | 2.49 µM | 6.8
6 | CCc1nn(CCCN2CCN(c3cccc(Cl)c3)CC2)c(=O)n1CCOc1ccccc1 [nefazodone] | 96.4% | 95.3% | 100% | 99.8% | 86.3% | 103% | 94.6% | 96.7% | 96.3% | 96.8% | 93.2% | 91.5% | 95.7% | 97.6% | 70.8% | 106% | 100% | 101% | 99% | 97.4% | > 10 µM | > 10 µM |  | > 10 µM | 0.1 | 0 | 1.6 | 0 | 95.6% | 101% | 97.5% | 102% | 96.6% | > 10 µM | 0
7 | O=C(O)/C=C/c1ccc(-c2ccc(O)c(C34CC5CC(CC(C5)C3)C4)c2)cc1 [adarotene] | 87.5% | 96.7% | 96.8% | 38% | 35.3% | 96.9% | 103% | 98.4% | 56.5% | 24.4% | 97.9% | 94.6% | 95.7% | 29.1% | 27.1% | 93.9% | 98.5% | 101% | 14.5% | 11.8% | 0.306 µM | 0.854 µM | 0.285 µM | 0.347 µM | 12 | 9.4 | 13.7 | 15.5 | 94% | 104% | 102% | 53.4% | 54.4% |  | 8.3
